Counter-ions that a name gives are not always drawn.
Tests used:
[1] = target: T1, hCA I (Homo sapiens, UniProt P00915); assay: stopped-flow CO2 hydrase assay, hCA I; type: biochemical; settings: stopped flow technique, mean from 3 different assays
T1 construct: made in house
Protocol: (§1) Target compounds of series (A) and (B) were screened as inhibitors concerning the physiologically relevant hCAs; cytosolic isoforms (hCA I and II) in addition to the transmembrane tumor related isoforms (hCA IX and XII) via a stopped-flow assay of carbonic anhydrase catalyzed CO2 hydration. Acetazolamide (AAZ), CA I drug, was also incorporated in the assays as a standard drug. […] Four CA isoforms inhibition activity was measured by assaying CA catalyzed CO2 hydration via an applied photophysics stopped-flow instrument. PRISM 3 and the Cheng-prusoff equation were used to determine the inhibition constant by non-linear least square methods as reported, and represent the mean from three different determination at least. All tested carbonic anhydrase isoforms were recombinant proteins prepared in lab as described earlier,[57].

[2] = target: T2, hCA XII (Homo sapiens, UniProt O43570); assay: stopped-flow CO2 hydrase assay, hCA XII; type: biochemical; settings: for Selectivity index (SI) I/XII: hCA XII over off-target hCA I; for Selectivity index (SI) II/XII: hCA XII over off-target hCA II; for Ki: stopped flow technique, mean from 3 different assays
T2 construct: made in house
T2 sequence (O43570 25-354): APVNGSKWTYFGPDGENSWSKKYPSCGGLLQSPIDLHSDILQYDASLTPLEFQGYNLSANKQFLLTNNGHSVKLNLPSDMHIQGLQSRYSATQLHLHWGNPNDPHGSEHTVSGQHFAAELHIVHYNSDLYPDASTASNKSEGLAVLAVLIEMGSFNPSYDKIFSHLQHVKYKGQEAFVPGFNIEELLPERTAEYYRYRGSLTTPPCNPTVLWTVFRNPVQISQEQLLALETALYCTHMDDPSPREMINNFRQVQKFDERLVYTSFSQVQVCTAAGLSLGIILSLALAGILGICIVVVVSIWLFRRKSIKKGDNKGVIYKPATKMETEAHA
Protocol: as §1

[3] = system: Renal cancer (UO-31); assay: NCI single dose SRB screen, UO-31; type: cell-based; settings: Homo sapiens, UO-31, 48 h, 10^−5 M single dose, read-out: GI% Renal cancer (UO-31)
Protocol: (§2) Target compounds in series (A) and (B), were submitted to the National Cancer Institute (NCI) Developmental Therapeutic Program (www.dtp.nci.nih.gov), where they have been assessed, in vitro for their anticancer activity. Two series (A) and (B), were screened in a single dose (10 µM) versus full panel composed of 60 cancer cell lines, in accordance with protocol of drug evaluation branch, NCI, Bethesda. Sulforhodamine B (SRB) colorimetric assay was used to determine cell growth and viability,[40].
(§3) Protocol of Drug Evaluation Branch, NCI, Bethesda, was adopted in the antitumor assay. Assessment of cell growth and viability was carried out utilizing SRB assay and 48 h drug exposure protocol as previously reported,[40].

[4] = system: CNS cancer (SNB-75); assay: NCI single dose SRB screen, SNB-75; type: cell-based; settings: Homo sapiens, SNB-75, 48 h, 10^−5 M single dose, read-out: GI% CNS cancer (SNB-75)
Protocol: as §2, §3

[5] = system: Breast cancer (MDA-MB-468); assay: NCI single dose SRB screen, MDA-MB-468; type: cell-based; settings: Homo sapiens, MDA-MB-468, 48 h, 10^−5 M single dose, 48 h, SRB; read-out: GI% Breast cancer (MDA-MB-468)
Protocol: as §2, §3

[6] = system: Leukemia (SR); assay: NCI single dose SRB screen, SR; type: cell-based; settings: 48 h, 10^−5 M single dose, read-out: GI% Leukemia (SR)
Protocol: as §2, §3

[7] = target: T3, hCA IX (Homo sapiens, UniProt Q16790); assay: stopped-flow CO2 hydrase assay, hCA IX; type: biochemical; settings: for Selectivity index (SI) I/IX: hCA IX over off-target hCA I; for Selectivity index (SI) II/IX: hCA IX over off-target hCA II; for Ki: stopped flow technique, mean from 3 different assays
T3 construct: made in house
Protocol: as §1

[8] = target: T4, hCA II (Homo sapiens, UniProt P00918); assay: stopped-flow CO2 hydrase assay, hCA II; type: biochemical; settings: for Ki: stopped flow technique, mean from 3 different assays
T4 construct: made in house
Protocol: as §1

T1 sequence (P00915 whole entry): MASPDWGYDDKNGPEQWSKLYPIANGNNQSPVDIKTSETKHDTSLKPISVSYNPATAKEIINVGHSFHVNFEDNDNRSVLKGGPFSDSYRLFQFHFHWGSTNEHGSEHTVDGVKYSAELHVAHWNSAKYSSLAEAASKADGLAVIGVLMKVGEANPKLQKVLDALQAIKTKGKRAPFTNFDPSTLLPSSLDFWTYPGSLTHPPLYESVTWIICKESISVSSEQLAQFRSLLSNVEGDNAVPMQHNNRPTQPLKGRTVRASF

Row | SMILES | Ki [1] | Selectivity index (SI) I/XII [2] | Selectivity index (SI) II/XII [2] | Ki [2] | melting point | Selectivity index (SI) I/IX [7] | Selectivity index (SI) II/IX [7] | Ki [7] | Ki [8] | decrease of hCA II activity relative to the m-fluoro analogue [8] | inhibition at 10 µM [3] | inhibition at 10 µM [4] | inhibition at 10 µM [5] | inhibition at 10 µM [6]
1 | N#CCc1nc(N)nc(Nc2ccc(S(N)(=O)=O)cc2)n1 [Compound 10, 4-{[4-amino-6-(cyanomethyl)-1,3,5-triazin-2-yl]amino}benzene-1-sulfonamide] | 72.3 nM | 0.01 | 0.006 | 7630 nM | 284 to 286 °C | 0.03 | 0.02 | 2450 nM | 49.2 nM |  | ≤ 10% | 33% | ≤ 10% | ≤ 10%
2 | CC1CCC2(CC1)N=C(N)N=C(N)N2c1ccc(S(=O)(=O)Nc2nccs2)cc1 (centres unmarked) (as salt: HCl) [Compound 6j, 4-(2,4-Diamino-9-methyl-1,3,5-triazaspiro[5.5]undeca-2,4-dien-1-yl)-N-(1,3-thiazol-2-yl)benzene-1-sulfonamide.HCl] |  |  |  |  | 243 to 245 °C |  |  |  |  |  |  |  |  | 
3 | N#C/C(=C\c1ccc(F)cc1)c1nc(N)nc(Nc2ccc(S(N)(=O)=O)cc2)n1 [Compound 12f., 4-({4-Amino-6-[(1E)-1-cyano-2-(4-fluorophenyl)eth-1-en-1-yl]-1,3,5-triazin-2-yl}amino)benzene-1-sulfonamide] | 590 nM | 0.1 | 0.1 | 4200 nM | 234 to 236 °C | 3 | 2.5 | 195 nM | 493 nM |  | 15% | 10% | 15% | 11%
4 | CC1CCC2(CC1)N=C(N)N=C(Nc1ccc(S(N)(=O)=O)cc1)N2 (centres unmarked) [Compound 8c, 4-({4-Amino-9-methyl-1,3,5-triazaspiro[5.5]undeca-2,4-dien-2-yl}amino)benzene-1-sulfonamide] | 408 nM | 0.4 | 0.6 | 936 nM | 264 to 266 °C | 0.3 | 0.5 | 1220 nM | 591 nM |  | ≤ 10% | ≤ 10% | ≤ 10% | ≤ 10%
5 | NC1=NC2(CCCCC2)N(c2ccc(S(N)(=O)=O)cc2)C(N)=N1 (as salt: HCl) [Compound 6b, 4-(2,4-Diamino-1,3,5-triazaspiro[5.5]undeca-2,4-dien-1-yl)benzene-1-sulfonamide.HCl] |  |  |  |  | 257 to 259 °C |  |  |  |  |  |  |  |  | 
6 | NC1=NC2(CCCCC2)N(c2ccc(S(=O)(=O)Nc3ccccn3)cc2)C(N)=N1 (as salt: HCl) [Compound 6e, 4-(2,4-Diamino-1,3,5-triazaspiro[5.5]undeca-2,4-dien-1-yl)-N-(pyridin-2-yl)benzene-1-sulfonamide.HCl] |  |  |  |  | 246 to 248 °C |  |  |  |  |  |  |  |  | 
7 | NC1=NC2(CCCCC2)N(c2ccc(S(=O)(=O)Nc3nccs3)cc2)C(N)=N1 (as salt: HCl) [Compound 6i, 4-(2,4-Diamino-1,3,5-triazaspiro[5.5]undeca-2,4-dien-1-yl)-N-(1,3-thiazol-2-yl)benzene-1-sulfonamide.HCl] |  |  |  |  | 245 to 247 °C |  |  |  |  |  |  |  |  | 

Continued, in another order:

Row | Ki [1] | Selectivity index (SI) I/XII [2] | Selectivity index (SI) II/XII [2] | Ki [2] | melting point | Selectivity index (SI) I/IX [7] | Selectivity index (SI) II/IX [7] | Ki [7] | Ki [8] | decrease of hCA II activity relative to the m-fluoro analogue [8] | SMILES | inhibition at 10 µM [3] | inhibition at 10 µM [4] | inhibition at 10 µM [5] | inhibition at 10 µM [6]
8 | 4050 nM | 0.5 | 0.1 | 8540 nM | 269 to 271 °C | 4 | 1 | 971 nM | 893 nM |  | N#C/C(=C\c1ccc2c(c1)OCO2)c1nc(N)nc(Nc2ccc(S(N)(=O)=O)cc2)n1 [Compound 12e, 4-({4-Amino-6-[(1E)-2-(2H-1,3-benzodioxol-5-yl)-1-cyanoeth-1-en-1-yl]-1,3,5-triazin-2-yl}amino)benzene-1-sulfonamide] | 13% | ≤ 10% | 27% | 11%
9 | 159 nM | 0.07 | 0.3 | 2310 nM | 204 to 206 °C | 0.8 | 3.6 | 195 nM | 697 nM |  | Cc1ccc(/C=C(\C#N)c2nc(N)nc(Nc3ccc(S(N)(=O)=O)cc3)n2)cc1 [Compound 12g, 4-({4-Amino-6-[(1E)-1-cyano-2-(4-methylphenyl)eth-1-en-1-yl]-1,3,5-triazin-2-yl}amino)benzene-1-sulfonamide] | 11% | 15% | 11% | ≤ 10%
10 | 508 nM | 5.8 | 3.6 | 87.5 nM | 222 to 224 °C | 9.7 | 6.1 | 52.2 nM | 320 nM |  | N#C/C(=C\c1cccc(Cl)c1)c1nc(N)nc(Nc2ccc(S(N)(=O)=O)cc2)n1 [Compound 12h, 4-({4-Amino-6-[(1E)-2-(3-chlorophenyl)-1-cyanoeth-1-en-1-yl]-1,3,5-triazin-2-yl}amino)benzene-1-sulfonamide] | ≤ 10% | ≤ 10% | 11% | 27%
11 | 3600 nM | 0.4 | 0.05 | 8060 nM | 174 to 176 °C | 2.3 | 0.3 | 1540 nM | 436 nM |  | N#C/C(=C\c1ccccc1)c1nc(N)nc(Nc2ccc(S(N)(=O)=O)cc2)n1 [Compound 12a, 4-({4-Amino-6-[(1E)-1-cyano-2-phenyleth-1-en-1-yl]-1,3,5-triazin-2-yl}amino)benzene-1-sulfonamide] | ≤ 10% | ≤ 10% | ≤ 10% | ≤ 10%
12 | 2620 nM | 0.3 | 0.2 | 8210 nM | 234 to 236 °C | 2.5 | 2 | 1020 nM | 2000 nM | 8 folds | N#C/C(=C\c1cccc(Br)c1)c1nc(N)nc(Nc2ccc(S(N)(=O)=O)cc2)n1 [Compound 12b, 4-({4-Amino-6-[(1E)-2-(3-bromophenyl)-1-cyanoeth-1-en-1-yl]-1,3,5-triazin-2-yl}amino)benzene-1-sulfonamide] | 16% | 14% | 16% | 14%
13 | 962 nM | 0.1 | 0.2 | 8680 nM | 281 to 283 °C | 0.7 | 1.4 | 1390 nM | 1940 nM |  | COc1ccc(/C=C(\C#N)c2nc(N)nc(Nc3ccc(S(N)(=O)=O)cc3)n2)cc1 [Compound 12c, 4-({4-Amino-6-[(1E)-1-cyano-2-(4-methoxyphenyl)eth-1-en-1-yl]-1,3,5-triazin-2-yl}amino)benzene-1-sulfonamide] | 14% | ≤ 10% | 22% | 16%

— paper PMC9537541, “Synthesis and anticancer activity of new benzensulfonamides incorporating s-triazines as cyclic linkers for inhibition of carbonic anhydrase IX” (Scientific Reports, 2022)
